From patent US20160304970A1, “GENE BIOMARKER TO DIAGNOSE METASTIC LIVER CANCER AND METHODS FOR TARGETING THE SAME” (University of Southern California, priority 2015, published 2016)

How the values were obtained:
TICs = assay: Annexin V-PI staining and caspase activity analysis; assay type: cell-based; conditions: 6 and 12 hours; p<0.05
Experimental: Annexin V staining was performed according to the manufacturer's instructions (A35110, Invitrogen). In brief, after drug treatment, the cells were washed twice with ice-cold phosphate-buffered saline (PBS) and detached by trypsin/EDTA. The cells were then incubated with 5 μl of Annexin V-APC in a 100 μl of cell suspension at room temperature for 15 minutes. After incubation, the cells were mixed with propidium iodide solution and analyzed by flow cytometry.
The caspase activity assay was performed according to the manufacturer's instructions (G8090, G8200, and G8210, Promega). In brief, 10,000 cells were plated into each well of a 96-well plate. After the cells attached, the drugs (5 μg/ml of ATRA and 0.5 μg/ml of SAHA) were added to each well and incubated for 6, 12, 16, and 24 hours. After incubation, the Caspase-Glo® substrate reagent was added to each well followed by incubation for 30 minutes. After incubation, the luminescence signal was measured with a luminometer.

CD133 (+) Huh7 cells = assay: In vivo tumorigenicity, CD133 (+) Huh7 cells in NOG mice; design: species or system mouse
Experimental: The TUNEL staining was performed according to the manufacturer's instructions (4810-30-K, TREVIGEN). In brief, paraffin-embedded tumor sections from each group were de-paraffinized, re-hydrated, and washed twice in PBS. Samples were covered with Proteinase K solution for 30 minutes at room temperature and then washed two times in deionized water. Slides were immersed in quenching solution for 5 minutes at room temperature and then washed in PBS. Slides were incubated in TdT labeling buffer for 5 minutes, immersed with labeling reaction mix, and incubated at 37° C. for 1 hour in a humidity chamber. Samples were immersed in TdT stop buffer for 5 minutes and then washed twice in deionized water for 5 minutes each at room temperature. Samples were covered with Strep-HRP solution and incubated for 10 minutes at 37° C. and washed twice in PBS. Samples were incubated in DAB solution for 5 minutes and then washed in deionized water several times. The samples were counterstained with Methyl Green and mounted on slides for observation.
CD133 was conjugated to the terminal amine functionality on a polyethylene glycol block of polylactide-polyethylene glycol (PLA-PEG) as previously described (Swaminathan et al., 2013). PLGA (30 mg) was dissolved in 1 ml chloroform containing ATRA (6 mg). An oil-in-water emulsion was formed by emulsifying the polymer drug solution in 6 ml of 2.5% w/v aqueous PVA solution by sonication (Sonicator®XL, Misonix, N.Y.) for 5 minutes in an ice bath. The PLA-PEG-CD133 conjugate was dissolved in chloroform (8 mg/100 μl) and added to the oil-in-water emulsion with stirring. The emulsion was stirred for 18 hours at ambient conditions followed by 2 hours under vacuum to remove residual chloroform. Nanoparticles were recovered by ultracentrifugation (35,000 rpm for 35 minutes at 4° C.; OptimaTMLE-80K, Beckman, Palo Alta, Calif.) and washed three times with deionized water to remove excess PVA and unencapsulated drugs. The nanoparticle suspension was then lyophilized (Labconco, FreeZone 4.5, Kansas City, Mo.). Before injection, the lyophilized nanoparticles were re-dissolved in PBS and filtered with a 0.22 micron filter.
A half million freshly sorted CD133 (+) TICs were suspended in 100 μl of Matrigel™ (BD) and injected subcutaneously into NOD/Shi-scid/IL-2Rγ^null(NOG) mice, six mice per group. After the tumor volume reached 100 mm^3, animals received one intravenous dose of CD133-conjugated RA nanoparticle (5 μg/ml) and SAHA (0.5 μg/ml) daily. The animals were monitored regularly for tumor growth and survival every day. All animals work was performed according to national and international guidelines. Animal studies were based on a protocol approved by the Institutional Animal Care and Use Committee at University of Southern California.

[1] = NOG mice, CD133 (+) Huh7 tumors

caspase-8 (extrinsic) and caspase-9 (intrinsic) pathway activity (TICs): induced both
SMILES: CC1=C(/C=C/C(C)=C/C=C/C(C)=C/C(=O)O)C(C)(C)CCC1 [ATRA, all-trans retinoic acid]
tumor growth (CD133 (+) Huh7 cells; ATRA 5 μg/ml in CD133 antibody-conjugated nanoparticles, SAHA 0.5 μg/ml, after 4 days of treatment): did not reduce or even promote tumor growth | TUNEL staining of tumors (CD133 (+) Huh7 cells; [1]): TUNEL-positive tumor cells | tumor morphology, hematoxylin and eosin stained sections (CD133 (+) Huh7 cells; [1]): necrotic regions
